The values that follow come from patent US10028992B2, “Methods of treating muscular dystrophy” (BOARD OF REGENTS OF THE NEVADA SYSTEM OF HIGHER EDUCATION …, priority 2012, dated 2018).

For the assay, the system named is α7 integrin promoter. As to the kind of experiment: muscle cell-based assay: α7βgal+/− myoblasts/myotubes, LacZ reporter, β-galactosidase cleavage of FDG. Further details: species or system mouse; Results in α7+/− β-galactosidase assay: scale not given here. To be noted: Myoblasts. The procedure, abridged:
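Fluorescein generated from FDG by β-galactosidase reports α7 integrin promoter activity in differentiated myoblasts from α7+/− LacZ knock-in pups. Screening hits then went to dose-response, western blotting and a myostatin counterscreen.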

As to `CN1CCN(c2ccccc2/C=C2\C(=O)Nc3ccccc32)CC1` [drawing 671], the “Results in α7+/− β-galactosidase assay” value (0.5 uM) was determined as 0.1788; the “Results in α7+/− β-galactosidase assay” value (1 uM) was determined as 0.04505; the “Results in α7+/− β-galactosidase assay” value (5 uM) is −0.08497; the “Results in α7+/− β-galactosidase assay” value (10 uM) is −0.09387; the “Results in α7+/− β-galactosidase assay” value (20 uM) is reported as −0.1256; the “Results in α7+/− β-galactosidase assay” value (40 uM) is on record as −0.3824.
As to `COC(=O)c1cc(S(=O)(=O)NCC2CCN(Cc3ccc(Cl)cc3)CC2)cn1C` [drawing 672], the “Results in α7+/− β-galactosidase assay” value is, setting by setting: (0.5 uM) 0.2815; (1 uM) 0.1861; (5 uM) −0.03678; (10 uM) −0.03865; (20 uM) 0.1247; (40 uM) 0.0618.
`COc1ccc(C(=O)Cn2nnc(-c3ccccc3NC(=O)c3ccco3)n2)cc1` [drawing 673]: the “Results in α7+/− β-galactosidase assay” value is 0.4054 (0.5 uM); 0.1958 (1 uM); −0.2666 (5 uM); −0.3483 (10 uM); −0.6016 (20 uM); −0.7762 (40 uM).
On to `N#Cc1nc(COc2ccccc2)oc1N1CCCC1` [drawing 674], for which the “Results in α7+/− β-galactosidase assay” value runs as follows: (0.5 uM) 0.189; (1 uM) 0.0825; (5 uM) −0.1343; (10 uM) −0.1744; (20 uM) −0.09766; (40 uM) −0.3419.
With `CCCc1nnc(SCC(=O)NC2CCCC2)n1CCOC` [drawing 675], the “Results in α7+/− β-galactosidase assay” value is given as 0.1622 (0.5 uM); 0.07572 (1 uM); −0.08939 (5 uM); −0.107 (10 uM); −0.1998 (20 uM); −0.413 (40 uM).
Consider `Nc1cccc(/C=C/C(=O)O)c1` [drawing 676], for which the “Results in α7+/− β-galactosidase assay” value by setting is: (0.5 uM) 0.1361; (1 uM) 0.05647; (5 uM) −0.05605; (10 uM) 0.2478; (20 uM) −0.08666; (40 uM) −0.2769.
In the case of `CCCC1C(c2cc(OC)c(OC)c(OC)c2)=Nc2c1c(=O)[nH]c(=O)n2Cc1ccccc1` (stereo not drawn) [drawing 677], the “Results in α7+/− β-galactosidase assay” value by setting is: (0.5 uM) 0.221; (1 uM) 0.193; (5 uM) −0.1488; (10 uM) 0.1807; (20 uM) −0.03424; (40 uM) −0.4586.
Take `CC(C)(C)c1ccc(C(=O)OCC(=O)Nc2sc3c(c2C#N)CCC3)cc1` [drawing 678]: the “Results in α7+/− β-galactosidase assay” value (0.5 uM) came to 0.2055; the “Results in α7+/− β-galactosidase assay” value (1 uM) is listed as 0.1005; the “Results in α7+/− β-galactosidase assay” value (5 uM) was 0.3001; the “Results in α7+/− β-galactosidase assay” value (10 uM) is −0.02658; the “Results in α7+/− β-galactosidase assay” value (20 uM) is reported as 0.3137; the “Results in α7+/− β-galactosidase assay” value (40 uM) came out at 0.2257.
As for `CCOc1cc(C)c(S(=O)(=O)N2CCCCC2)cc1C` [drawing 679], the “Results in α7+/− β-galactosidase assay” value (0.5 uM) came to 0.1137; the “Results in α7+/− β-galactosidase assay” value (1 uM) came to 0.2418; the “Results in α7+/− β-galactosidase assay” value (5 uM) amounted to 0.02032; the “Results in α7+/− β-galactosidase assay” value (10 uM) is listed as −0.02723; the “Results in α7+/− β-galactosidase assay” value (20 uM) was found to be 0.1874; the “Results in α7+/− β-galactosidase assay” value (40 uM) stood at 0.2404.
In the case of `Cc1cc(OCC(=O)NC(C)C)ccc1Cl` [drawing 680], the “Results in α7+/− β-galactosidase assay” value is listed as −0.00101 (0.5 uM); 0.01964 (1 uM); −0.2128 (5 uM); −0.3742 (10 uM); −0.5775 (20 uM); −0.6915 (40 uM).
Take `Cc1ccsc1CN(C)CC(=O)Cc1ccc([N+](=O)[O-])cc1Cl` [drawing 681]: the “Results in α7+/− β-galactosidase assay” value is listed as 0.233 (0.5 uM); 0.3513 (1 uM); −0.03377 (5 uM); −0.09863 (10 uM); −0.01304 (20 uM); −0.0403 (40 uM).
With `O=C1c2ccccc2C(=O)C1(CC(O)O)c1ccccc1` [drawing 682], the “Results in α7+/− β-galactosidase assay” value is listed as 0.2496 (0.5 uM); 0.3517 (1 uM); −0.03545 (5 uM); −0.1644 (10 uM); −0.1709 (20 uM); −0.2409 (40 uM).
Turning to `Cc1ccc(Cn2nnc3c(O)nc(C4CCCN(C(=O)c5ccco5)C4)nc32)cc1` (stereo not drawn) [drawing 683], the “Results in α7+/− β-galactosidase assay” value is 0.09519 (0.5 uM); 0.1784 (1 uM); −0.02152 (5 uM); −0.00668 (10 uM); −0.00332 (20 uM); 0.06402 (40 uM).
As for `Cc1ccc(NS(=O)(=O)c2ccc(-c3ccc(O)nn3)o2)c(C)c1` [drawing 685], the “Results in α7+/− β-galactosidase assay” value is 0.09197 (0.5 uM); 0.1114 (1 uM); −0.00204 (5 uM); −0.06144 (10 uM); 0.2389 (20 uM); 0.2674 (40 uM).
`CCCCN1CC(=O)N2Cc3[nH]c4ccccc4c3C[C@H]2C1=O` [drawing 686]: the “Results in α7+/− β-galactosidase assay” value by setting is: (0.5 uM) 0.1518; (1 uM) 0.2222; (5 uM) −0.00341; (10 uM) −0.04523; (20 uM) 0.1761; (40 uM) 0.2299.
In the case of `CCC(CC)C(=O)Nc1c(C(=O)N2CCN(c3ccccc3)CC2)oc2ccccc12` [drawing 687], the “Results in α7+/− β-galactosidase assay” value (0.5 uM) is on record as 0.02952; the “Results in α7+/− β-galactosidase assay” value (1 uM) is listed as 0.08671; the “Results in α7+/− β-galactosidase assay” value (5 uM) was found to be 0.02479; the “Results in α7+/− β-galactosidase assay” value (10 uM) is reported as −0.0251; the “Results in α7+/− β-galactosidase assay” value (20 uM) was 0.2442; the “Results in α7+/− β-galactosidase assay” value (40 uM) was 0.3404.
As for `Cc1nc(/C=C2\C(=O)Nc3ccccc32)c[nH]1` [drawing 688], the “Results in α7+/− β-galactosidase assay” value was 0.0102 (0.5 uM); 0.003171 (1 uM); 0.1245 (5 uM); −0.03494 (10 uM); 0.1171 (20 uM); 0.02067 (40 uM).
As for `O=C(NCCc1ccc(Cl)cc1)C1CCCO1` (stereo not drawn) [drawing 689], the “Results in α7+/− β-galactosidase assay” value runs as follows: (0.5 uM) 0.03412; (1 uM) 0.00045; (5 uM) 0.2918; (10 uM) 0.03423; (20 uM) 0.08798; (40 uM) 0.003802.
With `CCNC(=O)C(=O)Nc1cc2c3c(c1)CCN3C(=O)CC2` [drawing 690], the “Results in α7+/− β-galactosidase assay” value reads like this: (0.5 uM) 0.05836; (1 uM) 0.1657; (5 uM) 0.2771; (10 uM) 0.06388; (20 uM) 0.05069; (40 uM) 0.005609.
`Cc1cccc(NCC(=O)N/N=C/c2ccccn2)c1` [drawing 691]: the “Results in α7+/− β-galactosidase assay” value is, setting by setting: (0.5 uM) 0.1681; (1 uM) 0.3046; (5 uM) 0.3928; (10 uM) 0.1778; (20 uM) −0.1319; (40 uM) −0.4037.
Regarding `COc1ccc(CN2CCNC(=O)C2CC(=O)NCCc2c[nH]c3ccccc23)c(OC)c1` (stereo not drawn) [drawing 692], the “Results in α7+/− β-galactosidase assay” value reads like this: (0.5 uM) 0.0135; (1 uM) 0.04793; (5 uM) 0.2102; (10 uM) −0.04499; (20 uM) −0.02608; (40 uM) −0.01274.
Consider `O=c1c2cc(-c3ccccc3)sc2nc2n1N=C(c1ccccc1)CS2` [drawing 693], for which the “Results in α7+/− β-galactosidase assay” value reads like this: (0.5 uM) −0.04703; (1 uM) −0.001; (5 uM) 0.1857; (10 uM) 0.01009; (20 uM) 0.0113; (40 uM) 0.00476.
Turning to `Nc1ncnc(NCc2ccccc2)c1[N+](=O)[O-]` [drawing 694], the “Results in α7+/− β-galactosidase assay” value is listed as 0.01911 (0.5 uM); 0.00831 (1 uM); 0.2463 (5 uM); −0.04019 (10 uM); −0.00635 (20 uM); 0.02312 (40 uM).
